BindingDB's records for doi:10.7270/Q28G8J4C (Broad Institute, 2009)
pEC50: −log10 of the molar value. “And” between values parts separate entries of the source, which are not always exact repeats. Identical values can stand only once.

The compounds below were run against T1, POsterior Segregation (Caenorhabditis elegans, UniProt G5EF15) (assay: disruptors of C. elegans POS-1 RNA interaction – biochemical, fluorescence polarization, dose response (AID 1964)).
T1 sequence (G5EF15 whole entry): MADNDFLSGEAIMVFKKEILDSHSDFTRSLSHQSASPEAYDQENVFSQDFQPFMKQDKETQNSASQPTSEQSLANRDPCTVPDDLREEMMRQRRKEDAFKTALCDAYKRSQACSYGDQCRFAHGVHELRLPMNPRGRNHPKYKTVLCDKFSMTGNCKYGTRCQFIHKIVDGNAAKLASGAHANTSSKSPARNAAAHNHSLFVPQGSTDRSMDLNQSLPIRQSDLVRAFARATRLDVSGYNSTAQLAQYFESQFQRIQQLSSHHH

| Structure (SMILES) | pEC50 |
| --- | --- |
| COC(=O)c1[nH]c2cc(OC)c(OC)cc2c1CN=Nc1ccccc1 [methyl (3Z)-5,6-dimethoxy-3-[(2-phenylhydrazinyl)methylidene]indole-2-carboxylate] | 4.70 |
| CCCCOc1c(Br)cc(CN=O)cc1OCC [3-bromo-4-butoxy-5-ethoxy-benzaldoxime] | < 3.52 |
| COc1ccc(N2C(=O)NC(=O)C(=Cc3c[nH]c4ccc(Br)cc34)C2=O)c(OC)c1 [(5E)-5-[(5-bromo-1H-indol-3-yl)methylene]-1-(2,4-dimethoxyphenyl)pyrimidine-2,4,6(1H,3H,5H)-trione] | < 3.52 |
| COc1cc(C2C3=C(CC(C)(C)CC3=O)OC(=N)C2C#N)cc2c1OCO2 (configuration not stated) | < 3.52 |
| Cc1cc(N2C(=O)C(=O)C(C(=O)c3cc4ccccc4o3)C2c2ccc([N+](=O)[O-])cc2)no1 (configuration not stated) [3-(1-benzofuran-2-carbonyl)-4-hydroxy-1-(5-methyl-1,2-oxazol-3-yl)-2-(4-nitrophenyl)-2H-pyrrol-5-one] | < 3.52 |
| Cc1nnc(N2C(=O)C(=O)C(C(=O)c3ccco3)C2c2ccc(F)cc2)s1 (configuration not stated) [2-(4-fluorophenyl)-3-(furan-2-carbonyl)-4-hydroxy-1-(5-methyl-1,3,4-thiadiazol-2-yl)-2H-pyrrol-5-one] | 4.47 |
| CSc1nnc(N2C(=O)C(=O)C(C(=O)c3ccco3)C2c2ccccc2)s1 (configuration not stated) [3-(furan-2-carbonyl)-4-hydroxy-1-(5-methylsulfanyl-1,3,4-thiadiazol-2-yl)-2-phenyl-2H-pyrrol-5-one] | < 3.52 |
| Cc1ccc(CN=Nc2ncnc3nc[nH]c23)cc1 [MLS000419179] | < 3.52 |
| N#CC1C(=N)OC2=C(C(=O)CCC2)C1c1ccc2c(c1)OCO2 (configuration not stated) | < 3.52 |
| Cc1ccc2oc(=O)c(CC(=O)c3cccs3)nc2c1 [(3Z)-3-[2-keto-2-(2-thienyl)ethylidene]-6-methyl-4H-1,4-benzoxazin-2-one] | 4.67 |
| COc1ccc(CCN2C(=O)NC(=O)C(=CNNC(=O)c3ccncc3)C2=O)cc1OC [Isonicotinic acid N'-[1-[2-(3,4-dimethoxy-phenyl)-ethyl]-2,4,6-trioxo-tetrahydro-pyrimidin-(5E)-ylidenemethyl]-hydrazide] | 3.82 |
| CCN(CC)c1ccc(NC=C2C(=O)NC(=O)N(Cc3ccccc3)C2=O)cc1 [(5E)-1-benzyl-5-[[4-(diethylamino)anilino]methylene]barbituric acid] | 4.52 and < 3.52 |
| COc1ccc(OC)c(NC=C2C(=O)NC(=S)N(Cc3ccccc3)C2=O)c1 | < 3.52 |
| COc1cc(C2c3c(-c4cccnc4)n[nH]c3OC(=N)C2C#N)cc(Br)c1O (configuration not stated) | < 3.52 |
| O=C1c2cccc([N+](=O)[O-])c2C(=O)N1n1c(O)csc1=S [2-(4-keto-2-thioxo-thiazolidin-3-yl)-4-nitro-isoindoline-1,3-quinone] | 4.60 |
| COc1ccc(C=C2CCCC(C(=O)C(F)(F)F)C2=O)cc1OC (configuration not stated) [(2E,6Z)-2-(3,4-dimethoxybenzylidene)-6-(2,2,2-trifluoro-1-hydroxyethylidene)cyclohexanone] | < 3.52 |
| CC(N=Nc1ccc(Cl)c(C(=O)O)c1)c1ccc[nH]1 (configuration not stated) [2-chloro-5-[2-[(1Z)-1-pyrrol-2-ylideneethyl]hydrazinyl]benzoic acid] | < 3.52 |
| COc1ccc(C2C3=C(CCCC3=O)OC(=N)C2C#N)cc1OC (configuration not stated) [2-amino-4-(3,4-dimethoxyphenyl)-5-keto-4,6,7,8-tetrahydrochromene-3-carbonitrile] | < 3.52 |
| CN(C)[C@@H]1C(=O)C(C(N)=O)C(=O)[C@@]2(O)C(=O)C3C(=O)c4c(O)cccc4[C@@](C)(O)C3C(O)C12 (some centres not stated) [SMR000875333] | 4.27 |
| N#CC1C(=N)OC2=C(C(=O)CCC2)C1c1ccc(OC(=O)N2CCOCC2)cc1 (configuration not stated) [4-(2-amino-3-cyano-5-oxo-5,6,7,8-tetrahydro-4H-chromen-4-yl)phenyl morpholine-4-carboxylate] | < 3.52 |
| CC1=C(C#N)C(=O)N(C)C(=O)C1=CN [(5Z)-5-(aminomethylidene)-1,4-dimethyl-2,6-dioxopyridine-3-carbonitrile] | < 3.52 |
| Cc1cc(=O)[nH]c(N=NCc2ccc(O)c(O)c2)n1 [MLS001194906] | 4.00 |
| C[C@H]1c2cccc(O)c2C(=O)C2C(=O)[C@]3(O)C(=O)C(C(N)=O)C(=O)[C@@H](N(C)C)[C@@H]3[C@@H](O)[C@@H]21 (some centres not stated) | < 3.52 |
| COc1cccc(C2C3=C(CCCC3=O)OC(=N)C2C#N)c1OC(=O)c1ccco1 (configuration not stated) [2-(2-amino-3-cyano-5-oxo-5,6,7,8-tetrahydro-4H-chromen-4-yl)-6-methoxyphenyl 2-furoate] | < 3.52 |
| CC1(C)CC(=O)C2Sc3ccccc3N=C2C1 (configuration not stated) [2,2-Dimethyl-2,3-dihydro-1H,10H-phenothiazin-4-one] | 4.36 |
| CCOC(=O)C1C(=O)C(=Cc2cn(CC(=O)N3CCCC3)c3ccccc23)S/C1=N\c1ccccc1 (configuration not stated) [(5Z)-2-anilino-4-keto-5-[[1-(2-keto-2-pyrrolidino-ethyl)indol-3-yl]methylene]thiophene-3-carboxylic acid ethyl ester] | 4.32 |

| Structure (SMILES) | pEC50 |
| --- | --- |
| COc1ccc(C2C3=C(CC(C)(C)CC3=O)OC(=N)C2C#N)cc1 (configuration not stated) [2-amino-4-(4-methoxyphenyl)-7,7-dimethyl-5-oxo-6,8-dihydro-4H-1-benzopyran-3-carbonitrile] | 4.16 |
| Cc1cc(CN=Nc2ccc([N+](=O)[O-])cn2)c(C)n1-c1cccc(C(=O)O)c1 [3-[2,5-dimethyl-3-[[(5-nitro-2-pyridinyl)hydrazinylidene]methyl]-1-pyrrolyl]benzoic acid] | < 3.52 |
| N#CC1=C2CCOCC2C(c2cccnc2)C(C#N)(C#N)C1=N (configuration not stated) [6-Amino-8-pyridin-3-yl-8,8a-dihydro-1H,3H-isochromene-5,7,7-tricarbonitrile] | < 3.52 |
| CC1=C(C#N)C(=O)N(C)C(=O)C1=CNNc1ccc(F)cc1 [MLS000702698] | < 3.52 |
| COc1ccc(C(=O)CC=Nc2ccc([N+](=O)[O-])cc2C)cc1OC [(E)-1-(3,4-dimethoxyphenyl)-3-(2-methyl-4-nitro-anilino)prop-2-en-1-one] | 4.26 |
| O=C(O)c1ccc(NN=CC2=C(N3CCOCC3)C(=Cc3ccccc3)CC2)cc1 [4-[2-[[(3Z)-2-(4-morpholinyl)-3-(phenylmethylene)-1-cyclopentenyl]methylidene]hydrazinyl]benzoic acid] | 3.75 |
| O=C(c1ccccc1)[C@@H]1c2c(c(O)n(-c3ccc(F)cc3)c2O)C2CCCN21 (some centres not stated) [MLS000769629] | 4.42 |
| N#CC1C(=N)OC2=C(C(=O)CCC2)C1c1ccccc1 (configuration not stated) [2-amino-5-keto-4-phenyl-4,6,7,8-tetrahydrochromene-3-carbonitrile] | < 3.52 |
| Cc1cc(O)c(C(C)C)cc1Nc1csc(=O)[nH]1 [SMR000034713] | 4.41 |
| O=[N+]([O-])c1cc([CH+][N-]n2c(O)csc2=S)ccc1Cl [3-[(4-chloranyl-3-nitro-phenyl)methylideneamino]-2-sulfanylidene-1,3-thiazolidin-4-one] | 4.73 |
| Oc1ccc2ccccc2c1CN=Nc1nnc(-c2ncc[nH]2)c2ccccc12 [SMR000151639] | 4.31 |
| COc1ccc(N2C(=O)C(=Nc3ccccc3O)C(Cl)C2=O)cc1 (configuration not stated) [3-Chloro-4-(2-hydroxy-phenylamino)-1-(4-methoxy-phenyl)-pyrrole-2,5-dione] | < 3.52 |
| O=[N+]([O-])c1ccc(/N=N/c2ncc[nH]2)cc1 [N-(imidazol-2-ylideneamino)-4-nitroaniline] | 4.16 |
| O=C(N[N-][CH+]c1cc([N+](=O)[O-])ccc1N1CCCC1)c1ccccn1 [MLS000684285] | 3.83 |
| CCCCOc1cccc(C2C(C(=O)c3ccc(C)o3)C(=O)C(=O)N2c2nnc(C)s2)c1 (configuration not stated) [2-(3-butoxyphenyl)-3-(5-methylfuran-2-yl)carbonyl-1-(5-methyl-1,3,4-thiadiazol-2-yl)-4-oxidanyl-2H-pyrrol-5-one] | 3.99 |
| COc1ccc(N=C(C(=C(Cl)C(Cl)Cl)[N+](=O)[O-])n2nnc3ccccc32)cc1 [N-[(1E)-1-(1-benzotriazolyl)-3,4,4-trichloro-2-nitrobuta-1,3-dienyl]-4-methoxyaniline] | 4.05 |
| Cc1ccc(C(=O)Cc2nc3ccccc3oc2=O)cc1 [(3Z)-3-[2-(4-methylphenyl)-2-oxidanylidene-ethylidene]-4H-1,4-benzoxazin-2-one] | < 3.52 |
| CC(N=Nc1ccc([N+](=O)[O-])cc1[N+](=O)[O-])c1cc2c(ccc3ccccc32)oc1=O (configuration not stated) [2-[1-[(2,4-dinitrophenyl)hydrazinylidene]ethyl]-3-benzo[f][1]benzopyranone] | < 3.52 |
| CN1CCC2(CC1)C(C#N)C(=N)NC(=S)C2C#N (configuration not stated) [SMR000211480] | 5.09 |
| O=C1NC(=O)N(CCc2ccccc2)C(=O)C1=CNCCCn1ccnc1 [(5E)-5-[(3-imidazol-1-ylpropylamino)methylene]-1-phenethyl-barbituric acid] | < 3.52 |
| N#CC1C(=N)OC2=C(C(=O)CCC2)C1c1cc2c(cc1Cl)OCO2 (configuration not stated) [MLS001183950] | < 3.52 |
| Cc1ccc(N=CC2Sc3ccccc3NC2=O)cc1 (configuration not stated) [(2E)-2-(p-toluidinomethylene)-4H-1,4-benzothiazin-3-one] | < 3.52 |
| COc1ccc(C2C3=C(CCCC3=O)OC(=N)C2C#N)c(OC)c1OC (configuration not stated) [2-Amino-5-oxo-4-(2,3,4-trimethoxy-phenyl)-5,6,7,8-tetrahydro-4H-chromene-3-carbonitrile] | < 3.52 |
| N#CC(C(=O)c1cc2ccccc2o1)c1nc2ccccc2s1 (configuration not stated) [(2Z)-3-(1-benzofuran-2-yl)-2-(3H-1,3-benzothiazol-2-ylidene)-3-oxidanylidene-propanenitrile] | < 3.52 |
| N#CC1C(=N)OC2=C(C(=O)CCC2)[C@]12C(=O)N(CC(N)=O)c1ccccc12 (stereo partly drawn) [2-[(4R)-2-amino-3-cyano-2',5-diketo-spiro[7,8-dihydro-6H-chromene-4,3'-indoline]-1'-yl]acetamide] | < 3.52 |
| O=C1N=C(N2C=CC(c3ccncc3)C=C2)C(=CN=NC(=O)c2ccccc2O)S1 [SMR000646350] | 4.92 |
